Measured values from patent publication US6399561B1, “Methods and compositions for bleaching a dye in solution” (Novozymes A/S, priority 1998, dated 2002).

What was measured:
Assay type in all cases: biochemical
[1] = tested on: Recombinant Coprinus cinereus laccase (rCcL); experiment: Bleaching of methyl orange using rCcL and NOH-type enhancing agents (initial bleaching rate); details: for Initial changes per minute in A464 nm of methyl orange using rCcL: rCcL solution diluted 1:200, 0.2 mM mediator, 30° C., large negative numbers = best performance
Description: (§1) Britton-Robinson buffer is composed of:
(§2) Methyl orange (Merck, Germany)
(§3) Reactions were started by addition of enzyme. Absorbance at 464 nm was followed for 3 minutes (readings every 5 seconds) on a Cobas Fara at 30° C. Initial bleaching rates were determined from the first linear part of the progress curves.
(§4) The N—OH compounds listed above were tested as laccase mediators in bleaching of methyl orange with three recombinant laccases (rPpL, rMtL and rCcL) at various pH values. Large negative numbers represent the best performance.

[2] = tested on: Recombinant Myceliophthora thermophila laccase (rMtL); experiment: Bleaching of methyl orange using rMtL and NOH-type enhancing agents (initial bleaching rate); details: rMtL solution diluted 1:300, 0.2 mM mediator, 30° C., large negative numbers = best performance
Description: as §1, §2, §3, §4

[3] = molecular target: T1, Polyporus pinsitus laccase (Trametes villosa, UniProt Q99044); experiment: Bleaching of methyl orange using rPpL and NOH-type enhancing agents (initial bleaching rate); details: rPpL solution diluted 1:200, 0.2 mM mediator, 30° C., large negative numbers = best performance
T1 construct: made in house
T1 sequence (Q99044 22-520): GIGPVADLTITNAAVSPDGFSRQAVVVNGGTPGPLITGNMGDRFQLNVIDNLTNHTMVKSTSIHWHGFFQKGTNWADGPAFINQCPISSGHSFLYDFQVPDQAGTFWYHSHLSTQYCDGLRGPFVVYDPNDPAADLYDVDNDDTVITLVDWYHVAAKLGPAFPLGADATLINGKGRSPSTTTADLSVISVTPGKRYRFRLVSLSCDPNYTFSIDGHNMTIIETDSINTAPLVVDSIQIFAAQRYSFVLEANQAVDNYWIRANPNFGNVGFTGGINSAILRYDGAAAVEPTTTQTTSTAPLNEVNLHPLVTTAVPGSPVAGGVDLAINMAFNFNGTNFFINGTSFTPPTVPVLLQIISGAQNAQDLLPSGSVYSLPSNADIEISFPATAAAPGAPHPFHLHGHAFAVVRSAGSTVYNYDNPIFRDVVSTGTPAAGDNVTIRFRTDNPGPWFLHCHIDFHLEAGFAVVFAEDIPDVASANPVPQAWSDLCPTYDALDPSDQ
Description: as §1, §2, §3, §4

[4] = molecular target: T1, Polyporus pinsitus laccase; experiment: Bleaching of methyl orange with laccase and -NOH-CO- type mediators (microtitre plate, end-point absorbance)
Description: Polyporus pinsitus laccase as described in Example 1.
as §2
50 μl 0.1 mg/ml methyl orange
125 μl 0.1 M Britton-Robinson buffer (see example 1)
(§5) 25 μl 2 mM mediator or water (as reference)
50 μl laccase dilution (1:400)
Methyl orange, buffer and mediator are mixed in a microtitre plate and the reaction is started by addition of laccase. Absorbance is measured at 450 nm after 15 min.
N-Hydroxyacetanilide and N-(4-cyanophenyl)-N-hydroxyacetamide were tested as mediators in bleaching of methyl orange with a laccase at pH 4-6. Low values represent the best performance.

[5] = molecular target: T1, Polyporus pinsitus laccase; experiment: Bleaching of various dyes with laccase and N-Hydroxyacetanilide (microtitre plate, end-point absorbance); details: + enzyme + mediator, pH 5, laccase dilution 1:400, low values = best performance
Description: Polyporus pinsitus laccase as described in Example 1, except that the concentration is 1726 LACU/ml.
125 μl 0.1 M Britton-Robinson buffer, pH 5 (see example 1)
as §5
50 μl laccase dilution (1:400) or water (as reference)
Dye, buffer and mediator are mixed in a micro-titre plate and the reaction is started by addition of laccase. Absorbance is measured at 595 nm after 5 min.
N-Hydroxyacetanilide was used as mediator in bleaching of various dyes with a laccase. Low values represent the best performance.

[6] = pH 4, laccase dilution 1:400, low values = best performance
[7] = pH 5, laccase dilution 1:400, low values = best performance
[8] = pH 6, laccase dilution 1:400, low values = best performance

Structure (SMILES)	Initial changes per minute in A464 nm of methyl orange using rCcL ([1]; pH 4) [per minute]	Initial changes per minute in A464 nm of methyl orange using rCcL ([1]; pH 5) [per minute]	Initial changes per minute in A464 nm of methyl orange using rCcL ([1]; pH 6) [per minute]	Initial changes per minute in A464 nm of methyl orange using rCcL ([1]; pH 7) [per minute]	Initial changes per minute in A464 nm of methyl orange using rCcL ([1]; pH 8) [per minute]	Initial changes per minute in A464 nm of methyl orange using rMtL ([2]; pH 4) [per minute]	Initial changes per minute in A464 nm of methyl orange using rMtL ([2]; pH 5) [per minute]	Initial changes per minute in A464 nm of methyl orange using rMtL ([2]; pH 6) [per minute]	Initial changes per minute in A464 nm of methyl orange using rMtL ([2]; pH 7) [per minute]	Initial changes per minute in A464 nm of methyl orange using rPpL ([3]; pH 4) [per minute]	Initial changes per minute in A464 nm of methyl orange using rPpL ([3]; pH 5) [per minute]	Initial changes per minute in A464 nm of methyl orange using rPpL ([3]; pH 6) [per minute]	Initial changes per minute in A464 nm of methyl orange using rPpL ([3]; pH 7) [per minute]	Absorbance measured at 450 nm after 15 minutes [4, 6]	Absorbance measured at 450 nm after 15 minutes [4, 7]	Absorbance measured at 450 nm after 15 minutes [4, 8]	other results
CC(=O)N(O)c1ccccc1 [N-hydroxyacetanilide, N-Hydroxyacetanilide]	−0.521	−0.719	−0.674	−0.498	−0.136	−1.306	−1.847	−0.630	−0.101	−4.743	−6.528	−1.837	−0.055	0.077	0.068	0.087	bleaching of methyl orange, result in words ([1]; summary of Tables 1-3 (rCcL, rMtL and rPpL, various pH)): surprisingly good compared with the other N—OH types enhancing agents; Absorbance measured at 595 nm after 5 minutes ([5]; dye Acid blue 45): 0.123; Absorbance measured at 595 nm after 5 minutes ([5]; dye Acid blue 113): 0.062; Absorbance measured at 595 nm after 5 minutes ([5]; dye CSB): 0.207; Absorbance measured at 595 nm after 5 minutes ([5]; dye Cibacron Marine): 0.235
O=c1[nH]c(=O)[nH]c(=O)[nH]1 [Cyanuric acid]	−0.005	−0.008	−0.012	−0.012	−0.005	−0.013	0.010	−0.002	0.000	−0.037	−0.022	−0.011	−0.002				
O=C(c1ccccc1)N(O)c1ccccc1 [N-benzoyl-N-phenylhydroxylamine, N-Benzoyl-N-phenylhydroxylamine]	−0.163	−0.247	−0.529	−0.592	−0.124	−0.269	−0.296	−0.082	−0.012	−0.732	−1.402	−0.420	−0.012				
CCOc1ccc(N=[N+]([O-])c2ccc(OCC)cc2)cc1 [p,p′-azoxydiphenetole, p,p′-Azoxydiphenetole]	0.116	0.196	0.002	0.008	0.019	0.019	0.086	0.012	0.020	0.121	0.013	0.017	0.018				
CC(=O)N(O)c1ccc(C#N)cc1 [N-(4-cyanophenyl)-N-hydroxyacetamide]														0.065	0.055	0.083	bleaching a dye in solution, result in words ([4]; laccase, pH 4-6): as effective as N-Hydroxyacetanilide
